Data taken from patent US20250376464A1 (Trawsfynydd Therapeutics, Inc., priority 2022, published 2025).

Target: SARS-CoV2-Mpro (Severe acute respiratory syndrome coronavirus 2 (2019-nCoV) (SARS-CoV-2), UniProt P0DTD1)
Assay: Primary assay: SARS-CoV2-Mpro enzymatic activity inhibition
Format: biochemical
Details: enzyme preincubated with compound for 20 min; slope of linear portion of signal
Method: Example A. Primary Assay Used to Determine Potency of SARS-CoV2-Mpro Enzymatic Activity Inhibition
• (1) Deliver 2× Enzyme • (2) Deliver buffer into No Enzyme wells • (3) Deliver compounds in 100% DMSO by using Acoustic technology (Echo550; nanoliter range) • (4) Incubate for 20 min • (5) Deliver 2× Substrate to initiate the reaction • (6) Spin & shake, start measuring in EnVision at rt; 5 min interval for 25 (2 hours) • (7) Analyze data by taking slope (signal/time) of linear portion of measurement • (8) Slope is calculated by using Excel, and curve fits are performed using Prism software.
The % inhibition was then used to calculate the IC50 values. The IC50 values are shown in Table A, wherein “A” corresponds to IC50<10.0 nm, “B” corresponds to 10.0 nm≤IC50<50.0 nm, “C” corresponds to 50.0 nm≤IC50<100.0 nm, “D” corresponds to 100.0 nm≤IC50<500.0 nm, and “E” corresponds to 500.0 nm≤IC50<1000.0 nm, and “F” corresponds to 1000.0 nm≤IC50.

SMILES	IC50
CC(C)(C)[C@H](NC(=O)C(F)(F)F)C(=O)N1CCC2(CC2)CC1C(=O)N[C@H](C#N)C[C@@H]1CCNC1=O (mixture of isomers) [Compound 206, N—((S)-1-Cyano-2-((S)-2-oxopyrrolidin-3-yl)ethyl)-6-((S)-3,3-dimethyl-2-(2,2,2-trifluoroacetamido)butanoyl)-6-azaspiro[2.5]octane-5-carboxamide]	10 to 50 nM
CC(C)(C)[C@H](NS(C)(=O)=O)C(=O)N1C[C@H]2C([C@H]1C(=O)N[C@H](C#N)C[C@@H]1CCNC1=O)C2(C)C (stereo in doubt) [Compound 201, (1R,2S,5S)—N—((S)-1-Cyano-2-((S)-2-oxopyrrolidin-3-yl)ethyl)-3-((S)-3,3-dimethyl-2-(methylsulfonamido)butanoyl)-6,6-dimethyl-3-azabicyclo[3.1.0]hexane-2-carboxamide]	10 to 50 nM
CC(C)(C)[C@H](NS(=O)(=O)CC(F)(F)F)C(=O)N1C[C@H]2C([C@H]1C(=O)N[C@H](C#N)C[C@@H]1CCNC1=O)C2(C)C (stereo in doubt) [Compound 209, (1R,2S,5S)—N-[(1S)-1-cyano-2-[(3S)-2-oxopyrrolidin-3-yl]ethyl]-3-[(2S)-3,3-dimethyl-2-(2,2,2-trifluoroethylsulfonylamino)butanoyl]-6,6-dimethyl-3-azabicyclo[3.1.0]hexane-2-carboxamide]	10 to 50 nM
CC(C)(C)[C@H](NC(=O)C(F)(F)F)C(=O)N1C[C@H]2C([C@H]1C(=O)N[C@H](C#N)CC1C(=O)Nc3ccccc31)C2(C)C (stereo in doubt) [Compound 217, (1R,2S,5S)—N-((1S)-1-Cyano-2-(2-oxoindolin-3-yl)ethyl)-3-((S)-3,3-dimethyl-2-(2,2,2-trifluoroacetamido)butanoyl)-6,6-dimethyl-3-azabicyclo[3.1.0]hexane-2-carboxamide]	< 10 nM
CC(C)(C)[C@H](NC(=O)C(F)(F)F)C(=O)N1C[C@H]2C([C@H]1C(=O)NC(C#N)CC1(F)C(=O)Nc3ccccc31)C2(C)C (stereo in doubt) [Compound 227, (1S,2S,5S)-N-[1-cyano-2-(3-fluoro-2-oxo-indolin-3-yl)ethyl]-3-[(2S)-3,3-dimethyl-2-[(2,2,2-trifluoroacetyl)amino]butanoyl]-6,6-dimethyl-3-azabicyclo[3.1.0]hexane-2-carboxamide]	10 to 50 nM
CC(C)(C)[C@H](NC(=O)C(F)(F)F)C(=O)N1C[C@H]2C(C1C(=O)N[C@H](C#N)CC1(F)C(=O)Nc3ccccc31)C2(C)C (stereo in doubt) [Compound 228, (1S,2S,5S)-N-[(1S)-1-cyano-2-(3-fluoro-2-oxo-indolin-3-yl)ethyl]-3-[(2S)-3,3-dimethyl-2-[(2,2,2-trifluoroacetyl)amino]butanoyl]-6,6-dimethyl-3-azabicyclo[3.1.0]hexane-2-carboxamide]	10 to 50 nM
Cc1ccc2c(c1)C(F)(CC(C#N)NC(=O)C1C3[C@H](CN1C(=O)[C@@H](NC(=O)C(F)(F)F)C(C)(C)C)C3(C)C)C(=O)N2 (stereo in doubt) [Compound 229, (1S,2S,5S)-N-[1-cyano-2-(3-fluoro-5-methyl-2-oxo-indolin-3-yl)ethyl]-3-[(2S)-3,3-dimethyl-2-[(2,2,2-trifluoroacetyl)amino]butanoyl]-6,6-dimethyl-3-azabicyclo[3.1.0]hexane-2-carboxamide]	10 to 50 nM
Cc1ccc2c(c1)C(CC(C#N)NC(=O)C1C3[C@H](CN1C(=O)[C@@H](NC(=O)C(F)(F)F)C(C)(C)C)C3(C)C)C(=O)N2 (stereo in doubt) [Compound 230, (1S,2S,5S)-N-[1-cyano-2-(5-methyl-2-oxo-indolin-3-yl)ethyl]-3-[(2S)-3,3-dimethyl-2-[(2,2,2-trifluoroacetyl)amino]butanoyl]-6,6-dimethyl-3-azabicyclo[3.1.0]hexane-2-carboxamide]	10 to 50 nM
CN(C(=O)[C@@H]1C2[C@H](CN1C(=O)[C@@H](NC(=O)C(F)(F)F)C(C)(C)C)C2(C)C)[C@H](C#N)CC1C(=O)Nc2ccccc21 (stereo in doubt) [Compound 231, (1S,2S,5S)-N-[(1S)-1-cyano-2-(2-oxoindolin-3-yl)ethyl]-3-[(2S)-3,3-dimethyl-2-[(2,2,2-trifluoroacetyl)amino]butanoyl]-N,6,6-trimethyl-3-azabicyclo[3.1.0]hexane-2-carboxamide]	50 to 100 nM
CC(C)(C)[C@H](NC(=O)C(F)(F)F)C(=O)N1C[C@H]2C([C@H]1C(=O)N[C@H](C#N)CC1C(=O)Nc3ccc(Br)cc31)C2(C)C (stereo in doubt) [Compound 232, (1S,2S,5S)-N-[(1S)-2-(5-bromo-2-oxo-indolin-3-yl)-1-cyano-ethyl]-3-[(2S)-3,3-dimethyl-2-[(2,2,2-trifluoroacetyl)amino]butanoyl]-6,6-dimethyl-3-azabicyclo[3.1.0]hexane-2-carboxamide]	10 to 50 nM
CC(C)(C)[C@H](NC(=O)C(F)(F)F)C(=O)N1C[C@H]2C([C@H]1C(=O)N[C@H](C#N)CC1C(=O)Nc3cc(Br)ccc31)C2(C)C (stereo in doubt) [Compound 233, (1S,2S,5S)-N-[(1S)-2-(6-bromo-2-oxo-indolin-3-yl)-1-cyano-ethyl]-3-[(2S)-3,3-dimethyl-2-[(2,2,2-trifluoroacetyl)amino]butanoyl]-6,6-dimethyl-3-azabicyclo[3.1.0]hexane-2-carboxamide]	50 to 100 nM
Cc1cccc2c1C(C[C@@H](C#N)NC(=O)[C@@H]1C3[C@H](CN1C(=O)[C@@H](NC(=O)C(F)(F)F)C(C)(C)C)C3(C)C)C(=O)N2 (stereo in doubt) [Compound 234, (1S,2S,5S)-N-[(1S)-1-cyano-2-(4-methyl-2-oxo-indolin-3-yl)ethyl]-3-[(2S)-3,3-dimethyl-2-[(2,2,2-trifluoroacetyl)amino]butanoyl]-6,6-dimethyl-3-azabicyclo[3.1.0]hexane-2-carboxamide]	500 to 1000 nM
CC(C)(C)[C@H](NC(=O)C(F)(F)F)C(=O)N1C[C@H]2C([C@H]1C(=O)N[C@H](C#N)CC1C(=O)Nc3c(Cl)cccc31)C2(C)C (stereo in doubt) [Compound 235, (1S,2S,5S)-N-[(1S)-2-(7-chloro-2-oxo-indolin-3-yl)-1-cyano-ethyl]-3-[(2S)-3,3-dimethyl-2-[(2,2,2-trifluoroacetyl)amino]butanoyl]-6,6-dimethyl-3-azabicyclo[3.1.0]hexane-2-carboxamide]	< 10 nM
CC(C)(C)[C@H](NC(=O)C(F)(F)F)C(=O)N1C[C@H]2C([C@H]1C(=O)N[C@H](C#N)CC1C(=O)Nc3ccc(F)cc31)C2(C)C (stereo in doubt) [Compound 236, (1S,2S,5S)-N-[(1S)-1-cyano-2-(5-fluoro-2-oxo-indolin-3-yl)ethyl]-3-[(2S)-3,3-dimethyl-2-[(2,2,2-trifluoroacetyl)amino]butanoyl]-6,6-dimethyl-3-azabicyclo[3.1.0]hexane-2-carboxamide]	10 to 50 nM
CC(C)(C)[C@H](NS(C)(=O)=O)C(=O)N1C[C@H]2C([C@H]1C(=O)N[C@H](C#N)CC1C(=O)Nc3ccccc31)C2(C)C (stereo in doubt) [Compound 237, (1S,2S,5S)-N-[(1S)-1-cyano-2-(2-oxoindolin-3-yl)ethyl]-3-[(2S)-2-(methanesulfonamido)-3,3-dimethyl-butanoyl]-6,6-dimethyl-3-azabicyclo[3.1.0]hexane-2-carboxamide]	< 10 nM
CC(C)(C)[C@H](NS(C)(=O)=O)C(=O)N1C[C@H]2C([C@H]1C(=O)N[C@H](C#N)C[C@@H]1C(=O)Nc3ccccc31)C2(C)C (stereo in doubt) [Compound 238, (1S,2S,5S)-N-[(1S)-1-cyano-2-(2-oxoindolin-3-yl)ethyl]-3-[(2S)-2-(methanesulfonamido)-3,3-dimethyl-butanoyl]-6,6-dimethyl-3-azabicyclo[3.1.0]hexane-2-carboxamide]	< 10 nM
CC(C)(C)[C@H](NC(=O)C(F)(F)F)C(=O)N1C[C@H]2C([C@H]1C(=O)N[C@H](C#N)C[C@]1(C)C(=O)Nc3ccccc31)C2(C)C (stereo in doubt) [Compound 239, (1S,2S,5S)-N-[1-cyano-2-(3-methyl-2-oxo-indolin-3-yl)ethyl]-3-[(2S)-3,3-dimethyl-2-[(2,2,2-trifluoroacetyl)amino]butanoyl]-6,6-dimethyl-3-azabicyclo[3.1.0]hexane-2-carboxamide]	≥ 1000 nM
COC(=O)N[C@H](C(=O)N1C[C@H]2C([C@H]1C(=O)N[C@H](C#N)CC1C(=O)Nc3ccccc31)C2(C)C)C(C)(C)C (stereo in doubt) [Compound 243, Methyl N-[(1S)-1-[(1S)-2-[[(1S)-1-cyano-2-(2-oxoindolin-3-yl)ethyl]carbamoyl]-6,6-dimethyl-3-azabicyclo[3.1.0]hexane-3-carbonyl]-2,2-dimethyl-propyl]carbamate]	< 10 nM
CCOC(=O)N[C@H](C(=O)N1C[C@H]2C([C@H]1C(=O)N[C@H](C#N)CC1C(=O)Nc3ccccc31)C2(C)C)C(C)(C)C (stereo in doubt) [Compound 244, Ethyl N-[(1S)-1-[(1S)-2-[[(1S)-1-cyano-2-(2-oxoindolin-3-yl)ethyl]carbamoyl]-6,6-dimethyl-3-azabicyclo[3.1.0]hexane-3-carbonyl]-2,2-dimethyl-propyl]carbamate]	10 to 50 nM
CCOC(=O)N[C@@H](CC(C)C)C(=O)N1C[C@H]2C([C@H]1C(=O)N[C@H](C#N)CC1C(=O)Nc3ccccc31)C2(C)C (stereo in doubt) [Compound 246, ethyl N-[(1S)-1-[(1S,2S,5S)-2-[[(1S)-1-cyano-2-(2-oxoindolin-3-yl)ethyl]carbamoyl]-6,6-dimethyl-3-azabicyclo[3.1.0]hexane-3-carbonyl]-3-methyl-butyl]carbamate]	10 to 50 nM
